Experimental data as given in PMC5718994, “Synthesis and analytical characterization of new thiazol-2-(3H)-ones as human neutrophil elastase (HNE) inhibitors” (Chemistry Central Journal, 2017).

Tests used:
[1] = target: T1, HNE (Calbiochem) (Homo sapiens, UniProt P08246); experiment: HNE inhibition assay; type: biochemical; conditions: highest concentration tested 40 µM
T1 construct: purchased Calbiochem
T1 sequence (P08246 30-267): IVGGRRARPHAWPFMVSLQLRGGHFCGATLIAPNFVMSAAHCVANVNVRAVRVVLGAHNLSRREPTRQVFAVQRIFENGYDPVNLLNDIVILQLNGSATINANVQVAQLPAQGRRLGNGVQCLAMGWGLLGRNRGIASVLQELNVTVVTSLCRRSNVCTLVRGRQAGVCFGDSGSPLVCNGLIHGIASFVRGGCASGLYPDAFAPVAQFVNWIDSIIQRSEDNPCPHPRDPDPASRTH
Experimental: Compounds were dissolved in 100% DMSO at 5 mM stock concentrations. The final concentration of DMSO in the reactions was 1%, and this level of DMSO had no effect on enzyme activity. The HNE inhibition assay was performed in black flat-bottom 96-well microtiter plates. Briefly, a buffer solution containing 200 mM Tris–HCl, pH 7.5, 0.01% bovine serum albumin, and 0.05% Tween-20 and 20 mU/mL of HNE (Calbiochem) was added to wells containing different concentrations of each compound. The reaction was initiated by addition of 25 μM elastase substrate (N-methylsuccinyl-Ala–Ala-Pro-Val-7-amino-methyl-coumarin, Calbiochem) in a final reaction volume of 100 μL/well. Kinetic measurements were obtained every 30 s for 10 min at 25 °C using a Fluoroskan Ascent FL fluorescence microplate reader (Thermo Electron, MA) with excitation and emission wavelengths at 355 and 460 nm, respectively.

[2] = test system: HNE; conditions: HNE inhibitor, Fig. 1; cited from earlier work

| melting point | HNE inhibitory activity [1] | Compound | IC50 [2] |
| --- | --- | --- | --- |
| 188 to 191 °C |  | Cc1csc(=O)n1CC(=O)Nc1ccccc1 [Compound 2e, 2-(4-Methyl-2-oxothiazol-3(2H)-yl)-N-phenylacetamide] |  |
| 121 to 123 °C | inactivity | CC(=O)c1sc(=O)n(COC(=O)c2ccccc2)c1C [Compound 5b, (5-Acetyl-4-methyl-2-oxothiazol-3(2H)-yl)methyl benzoate] |  |
| 84 to 87 °C |  | O=c1scc(-c2ccccc2)n1-c1cccc(C(F)(F)F)c1 [Compound 3b, 4-Phenyl-3-[3-(trifluoromethyl)phenyl]thiazol-2(3H)-one] |  |
| 147 to 150 °C |  | CC(=O)c1sc(=O)n(-c2cccc(C(F)(F)F)c2)c1C [Compound 3d, 5-Acetyl-4-methyl-3-[3-(trifluoromethyl)phenyl]thiazol-2(3H)-one] |  |
|  | inactivity | O=C(OCOc1nc(-c2ccccc2)cs1)c1ccccc1 [Compound 6a, (4-Phenylthiazol-2-yloxy)methyl benzoate] |  |
| 118 to 121 °C |  | Cc1cccc(-n2c(-c3ccccc3)csc2=O)c1 [Compound 3a, 4-Phenyl-3-m-tolyl-thiazol-2(3H)-one] |  |
| 177 to 179 °C |  | O=C(Cn1c(-c2ccccc2)csc1=O)Nc1ccccc1 [Compound 2a, 2-(2-Oxo-4-phenylthiazol-3(2H)-yl)-N-phenylacetamide] |  |
| 213 to 216 °C |  | O=C(Cn1c(-c2ccccc2)csc1=O)Nc1c(Cl)cccc1Cl [Compound 2b, N-(2,6-dichlorophenyl)-2-(2-oxo-4-phenylthiazol-3(2H)-yl)acetamide] |  |
|  | inactive | Cc1cccc(COc2nc(-c3ccccc3)cs2)c1 [Compound 6c, 2-(3-Methylbenzyloxy)-4-phenylthiazole] |  |
| 209 to 211 °C |  | CC(=O)c1sc(=O)n(CC(=O)Nc2c(Cl)cccc2Cl)c1C [Compound 2d, 2-(5-Acetyl-4-methyl-2-oxothiazol-3(2H)-yl)-N-(2,6-dichlorophenyl)acetamide] |  |
| 104 to 106 °C |  | CC(=O)c1sc(=O)n(-c2cccc(C)c2)c1C [Compound 3c, 5-Acetyl-4-methyl-3-m-tolylthiazol-2(3H)-one] |  |
|  | inactivity | O=C(OCn1c(-c2ccccc2)csc1=O)c1ccccc1 [Compound 5a, (2-Oxo-4-phenylthiazol-3(2H)-yl)methyl benzoate] |  |
|  | inactivity | CC(=O)c1sc(OCOC(=O)c2ccccc2)nc1C [Compound 6b, (5-Acetyl-4-methylthiazol-2-yloxy)methyl benzoate] |  |
|  | inactive | Cc1cccc(Cn2c(-c3ccccc3)csc2=O)c1 [Compound 5c, 3-(3-Methylbenzyl)-4-phenylthiazol-2(3H)-one] |  |
| 188 to 190 °C |  | CC(=O)c1sc(=O)n(CC(=O)Nc2ccccc2)c1C [Compound 2c, 2-(5-Acetyl-4-methyl-2-oxothiazol-3(2H)-yl)-N-phenylacetamide] |  |
| 266 to 269 °C |  | Cc1csc(=O)n1CC(=O)Nc1c(Cl)cccc1Cl [Compound 2f, N-(2,6-dichlorophenyl)-2-(4-methyl-2-oxothiazol-3(2H)-yl)acetamide] |  |
|  |  | Cc1c(-c2ccnn2C)cc(C(=O)NCc2ccc(S(C)(=O)=O)cn2)c(=O)n1-c1cccc(C(F)(F)F)c1 [Alvelestat] | 12 nM |
| 69 to 72 °C |  | Cc1cccc(-n2c(C)csc2=O)c1 [Compound 3e, 4-Methyl-3-m-tolyl-thiazol-2(3H)-one] |  |
